Legend:
[1] = test system: S. aureus (MRSA SAP0017) biofilms; test: Static microtitre plate antibiofilm screen (crystal violet); format: cell-based, Staphylococcus aureus; conditions: SPOT-synthesized peptides (60–70% purity), ~6.25 μM, TSB with 1% glucose, 24 h 37 °C, crystal violet A595, mean of three biological replicates; Fig. 1b matrix
Procedure: The SPOT-synthesized peptides were evaluated for their antibiofilm activity in vitro as described previously. Briefly, 5 μl of SPOT-peptide stock solution or a corresponding serial dilution was placed in a 96-well polypropylene round bottom plate (Corning Inc. Corning, NY) and 95 μl of a 1/100 dilution of an overnight culture of MRSA SAP0017 in TSB supplemented with 1% glucose was added to each well. The plates were incubated overnight at 37 °C to allow for bacterial growth and biofilm maturation. After 24 hours, the media containing planktonic bacteria was rinsed from each well with distilled water and the remaining biomass was stained with 0.1% crystal violet. The unbound dye was rinsed away and the biofilm bound dye was suspended in 70% ethanol and the absorbance at 595 nm was recorded on a plate reader. Percent biofilm inhibition was calculated by comparison to the amount of crystal violet stain in the untreated controls (defined as 100%) and the sterility control wells (defined as 0%). Results from three separate biological replicates were averaged and outliers were identified using the modified Thompson Tau test and removed from the analysis. The antibiofilm activity of all SPOT-derived peptides was assessed at multiple concentrations (up to five 2-fold dilutions from the stock solution) and the peptide concentration yielding the largest difference in percent inhibition of biofilm growth was used in subsequent analysis.

[2] = test system: biofilms formed by P. aeruginosa, Escherichia coli and MRSA; conditions: combination with various antimicrobial agents; cited from earlier work
Text: For example, when peptide 1018 was used in combination with various antimicrobial agents, it decreased the amount of drug required to treat biofilms formed by P. aeruginosa, Escherichia coli and MRSA (among others) by up to 64-fold[30]. […] It is likely that such synergistic effects would be conserved with the latest pept ...

MRSA USA300 LAC = test: Murine cutaneous abscess model; format: in vivo, CD-1 mice; conditions: 14 mg/kg
Procedure: The in vivo activity of the identified antibiofilm peptide 3002 and the parental compound 1018 was evaluated using a recently described murine abscess model of chronic MRSA infections. All animal experiments were performed in accordance with The Canadian Council on Animal Care (CCAC) guidelines and were approved by the University of British Columbia Animal Care Committee. Briefly, the fur on the backs of 6-week old female CD-1 mice (Charles River Laboratories, Wilmington, MA) was removed by shaving and subsequent treatment with depilatory cream. MRSA USA300 LAC was grown to an optical density at 600 nm of 1 in tryptic soy broth (TSB) at which point cells were washed twice with sterile PBS and then suspended in PBS to a final cell density of 5 × 10^7 CFU/50 μL. Mice were infected with 50 μL of bacteria subcutaneously on the right flank of the back and 1 hour later, given saline (for controls) or treated with 14 mg/kg peptide (1018 or 3002) via intra-abscess injection. Mice were monitored daily and their weight as well as abscess lesion sizes (measured using a caliper) were recorded every 24 hrs. Visible dermonecrosis or white lesions (filled with pus) were considered as part of the abscess lesion while swelling/inflammation was disregarded in the abscess size measurements. Three days post-infection, abscesses were excised and homogenized using a Bead Ruptor 4 tissue homogenizer (OMNI International, Kennesaw GA) for 5 minutes and serially plated for viable CFU quantification.

[3] = test system: peripheral blood mononuclear cells (PBMCs); test: Cytotoxicity, LDH release assay; format: cell-based, human; conditions: peptide concentrations as high as 40 µM
Procedure: The cytotoxicity and immunomodulatory activity of both 1018 and 3002 was assessed as described previously. Briefly, peripheral blood mononuclear cells (PBMCs) were collected from healthy volunteers in accordance with the University of British Columbia ethics guidelines. PBMCs were plated in Costar 96-well flat bottom tissue culture treated plates at a final density of 1 × 10^6 cells/ml in RPMI media supplemented with 10% fetal bovine serum. […] Cytotoxicity was assessed using the Cytotoxicity Detection Kit (Roche Diagnostics, Basel, Switzerland) which measures lactate dehydrogenase activity released from damaged cells. Immune modulation was characterized by measuring the production of MCP-1 chemokine by induced by peptide alone as well as the suppression of interleukin (IL)-1β from PBMCs stimulated with 10 ng/ml Pseudomonas aeruginosa PAO1 lipopolysaccharide. Levels of MCP-1 and IL-1β were quantified by enzyme linked immunosorbent assays (ELISAs) using kits from eBioscience Inc. (San Diego, CA).

[4] = test system: MRSA SAP0017 biofilms grown in flow cells; test: Eradication of pre-formed biofilms in flow cells; format: cell-based, Staphylococcus aureus; conditions: BM2 media, SYTO-9/propidium iodide, confocal microscopy
Procedure: Bacterial biofilms were grown in BM2 media (62 mM potassium phosphate buffer, pH 7, 7 mM (NH4)2SO4, 2 mM MgSO4, 10 μM FeSO4 and 0.4% (wt/vol) glucose) for 48 hours followed by treatment with peptide (2 or 0.125 µM) for an additional 24 hours. The samples were stained with SYTO-9 and propidium iodide fluorescent dyes to image total and dead cells, respectively. Flow-cell images were acquired on an Olympus FluoView FV1000 confocal laser scanning microscope (Olympus Corp. Tokyo, Japan) and were analyzed with the Fiji software package.

[5] = test system: planktonic S. aureus MRSA (SAP0017); test: MIC determination, broth microdilution; format: cell-based, Staphylococcus aureus; conditions: broth microdilution, ~5 × 10^5 CFU/ml, 37 °C overnight, visual read, mean of three biological replicates
Procedure: The MIC of the synthesized peptides was determined in both Mueller Hinton Broth (MHB) and Tryptic Soy Broth (TSB) supplemented with 1% glucose, using the broth microdilution method[21] with slight modifications. Briefly, 10 μl of a 10× concentrated peptide stock solution, vancomycin antibiotic, or vehicle control (water) was placed in the bottom of a well in a 96-well polypropylene round bottom plate (Corning Inc. Corning, NY). A bacterial suspension of S. aureus MRSA (SAP0017, clinical isolate kindly provided by Dr. Tony Chow, Vancouver General Hospital) was prepared from an overnight culture to a final cell density of ~5 × 10^5 CFU/ml and 90 μl of this was added to each well.

Substance: VRLIVAVRIWRR-NH2 [compound 1018, synthetic immunomodulatory cationic peptide, 12-residue derivative of bovine bactenecin; parent template, reference compound]
- percent residual biofilm after treatment with peptide [1]: 31%
- decrease in amount of drug required to treat biofilms in combination with peptide [2]: up to 64 fold
- reduction of abscess lesion size compared to untreated controls (MRSA USA300 LAC; single intra-abscess injection 1 h after infection, 3 days): 2.4 fold
- effect on bacterial load recovered from the abscesses (MRSA USA300 LAC; single intra-abscess injection, CFU three days post-infection): neither peptide had any effect
- cytotoxicity (LDH release) [3]: less than 15%
- eradication of 2-day old pre-formed MRSA biofilms ([4]; 0.125 μM peptide for 24 h): virtually identical to untreated controls
- eradication of 2-day old pre-formed MRSA biofilms ([4]; 2 µM peptide for 24 h): effectively eradicated
- MIC, MHB ([5]; Mueller Hinton Broth): 4 µM
- MIC, TSB with 1% Glucose ([5]; Tryptic Soy Broth with 1% glucose): >64 µM
